From PMC12022903, “Evaluation of drug-drug interaction between Suraxavir Marboxil (GP681) and itraconazole, and assessment of the impact of gene polymorphism” (Frontiers in Pharmacology, 2025)
Like-named read-outs stand apart in the source and are kept apart here.

How the values were obtained:
carboxylesterase CES2 = test system: carboxylesterase CES2; design: method as in unpublished data; conditions: preclinical studies; ref unpublished data; cited from earlier work
[1] = design: method as in unpublished data; conditions: preclinical studies; ref unpublished data; cited from earlier work
MDR1 [2] = test system: MDR1; design: method as in unpublished data; conditions: preclinical studies; ref unpublished data; cited from earlier work
[3] = design: method as in unpublished data; conditions: within 336 h after oral administration; ref unpublished data; cited from earlier work
MDR1 [4] = test system: MDR1; design: method as in unpublished data; conditions: preclinical studies; ref unpublished data; cited from earlier work; remark: listed apart in the source
OATP1B3 = test system: OATP1B3; design: method as in unpublished data; conditions: preclinical studies; ref unpublished data; cited from earlier work
OAT3 = test system: OAT3; design: method as in unpublished data; conditions: preclinical studies; ref unpublished data; cited from earlier work
liver enzymes = test system: liver enzymes; design: method as in unpublished data; conditions: preclinical studies; ref unpublished data; cited from earlier work
BCRP = test system: BCRP; design: method as in unpublished data; conditions: preclinical studies; ref unpublished data; cited from earlier work
OATP1B1 = test system: OATP1B1; design: method as in unpublished data; conditions: preclinical studies; ref unpublished data; cited from earlier work
OAT1 = test system: OAT1; design: method as in unpublished data; conditions: preclinical studies; ref unpublished data; cited from earlier work
[5] = quantification limit 0.3 ng/mL
[6] = format: in vivo
Procedure: This single-center, open-label, self-controlled, fixed-sequence study, sponsored by Qingfeng Pharmaceutical Group Co., Ltd., was conducted at a single clinical research site in the China–Japan Friendship Hospital (Beijing, China). Each subject received the following treatment: Suraxavir Marboxil (GP681) 20 mg in the fasted state on day 1 and day 26. Itraconazole capsules (Sporanox®: Xi’an Yangsen Pharmaceutical Co., Ltd., China) 0.2 g twice daily (BID, bis in die) on day 22. Itraconazole 0.2 g daily from day 23 to day 36 [including day 26, when itraconazole was co-administrated with Suraxavir Marboxil (GP681)]. The washout period is 21 days (Figure 2).
Safety was assessed through physical examination, vital sign measurements, clinical laboratory tests, 12-lead electrocardiograms, and assessment of self-reported symptoms. Adverse events were collected from the first dose through the end of the study. All safety data collected were assessed for severity and relationship to each study drug, Suraxavir Marboxil (GP681) or itraconazole. The severity of an adverse event was graded according to Common Terminology Criteria for Adverse Events (CTCAE) v5.0. For each adverse event occurred, investigators continued to follow up until it was resolved. Adverse event analysis is based on Safety Set (SS), coded with MedDRA version 26.0. Adverse events will be summarized by system organ class (SOC) and preferred term (PT) in terms of number of cases, occurrences, and incidence rate.

[7] = N = 12, treatment stage given by label

## COC(=O)OCOc1c2n(ccc1=O)N([C@@H]1c3ccccc3SCc3c1ccc(F)c3F)[C@@H]1COC3(CC3)CN1C2=O [GP681, (((R)-12'-((S)-7,8-difluoro-6, 11-dihydro-2-benzothiophene-11-yl)-6′, 8′-dioxide-6′, 8′, 12′, 12a′-tetrahydro-1′H-, 4′H-spiro [cyclopropane-1, 3'-[1, 4]oxazine [3,4-c]pyridine and [2,1-f] [1,2, 4]triazine]-7′-yl)oxy) methyl carbonate]
Carboxylesterase CES2
  conversion of prodrug to active form: converted to an active form GP1707D07 by carboxylesterase CES2
[1]
  detection of prodrug in plasma following oral administration: scarcely detected in plasma
  route of excretion: mainly excreted in feces
MDR1 [2]
  substrate for the MDR1 transporter: Neither Suraxavir Marboxil (GP681) nor its metabolite, GP1707D07, serves as substrates
[3]
  radioactivity recovery in feces: 84.1%
  radioactivity recovery in urine: 6.0%
  total radioactivity recovery rate: 90.1%
MDR1 [4]
  inhibition of transport activity of MDR1: nor do they inhibit the transport activity
OATP1B3
  inhibition of transport activity of OATP1B3: nor do they inhibit the transport activity
OAT3
  inhibition of transport activity of OAT3: nor do they inhibit the transport activity
Liver enzymes
  inhibition or induction of liver enzymes: do not significantly inhibit or induce liver enzymes
BCRP
  substrate for the BCRP transporter: Neither Suraxavir Marboxil (GP681) nor its metabolite, GP1707D07, serves as substrates
OATP1B1
  inhibition of transport activity of OATP1B1: nor do they inhibit the transport activity
OAT1
  inhibition of transport activity of OAT1: nor do they inhibit the transport activity
[5]
  plasma concentrations of GP681 in all the rest of blood samples: below the quantification limit
[6]; [7]
  TEAE Alanine aminotransferase increased: no. of TEAEs: 1
  TEAE Alanine aminotransferase increased: no. of subjects (percent of subjects): 1 (8.3)
  TEAE Basophil count increased: no. of subjects (percent of subjects): 0
  TEAE Gamma-glutamyltransferase increased: no. of TEAEs: 1
  TEAE Gamma-glutamyltransferase increased: no. of subjects (percent of subjects): 1 (8.3)
  TEAE Hemoglobin decreased: no. of TEAEs: 1
  TEAE Hemoglobin decreased: no. of subjects (percent of subjects): 1 (8.3)
  TEAE Hepatobiliary disorders: no. of subjects (percent of subjects): 0
  TEAE Hyperbilirubinemia: no. of subjects (percent of subjects): 0
  TEAE Hypertriglyceridemia: no. of TEAEs: 1
  TEAE Hypertriglyceridemia: no. of subjects (percent of subjects): 1 (8.3)
  TEAE Hyperuricemia: no. of TEAEs: 1
  TEAE Hyperuricemia: no. of subjects (percent of subjects): 1 (8.3)
  TEAE Hypophosphatemia: no. of subjects (percent of subjects): 0
  TEAE Investigations: no. of TEAEs: 7
  TEAE Investigations: no. of subjects (percent of subjects): 4 (33.3)
  TEAE Lymphocyte count decreased: no. of TEAEs: 1
  TEAE Lymphocyte count decreased: no. of subjects (percent of subjects): 1 (8.3)
  TEAE Metabolism and nutrition disorders: no. of TEAEs: 2
  TEAE Metabolism and nutrition disorders: no. of subjects (percent of subjects): 2 (16.7)
  TEAE Occult blood in urine: no. of TEAEs: 1
  TEAE Occult blood in urine: no. of subjects (percent of subjects): 1 (8.3)
  TEAE Overall total: no. of TEAEs: 9
  TEAE Overall total: no. of subjects (percent of subjects): 5 (41.7)
  TEAE Red blood cell increased: no. of TEAEs: 1
  TEAE Red blood cell increased: no. of subjects (percent of subjects): 1 (8.3)
  TEAE Total bile acid increased: no. of TEAEs: 1
  TEAE Total bile acid increased: no. of subjects (percent of subjects): 1 (8.3)
  TEAE White blood cell increased: no. of subjects (percent of subjects): 0
  TEAE related to GP681, Alanine aminotransferase increased: no. of TEAEs: 1[1]
  TEAE related to GP681, Alanine aminotransferase increased: no. of subjects: 1[1]
  TEAE related to GP681, Gamma-glutamyltransferase increased: no. of TEAEs: 1[1]
  TEAE related to GP681, Gamma-glutamyltransferase increased: no. of subjects: 1[1]
  TEAE related to GP681, Hemoglobin decreased: no. of TEAEs: 1[1]
  TEAE related to GP681, Hemoglobin decreased: no. of subjects: 1[1]
  TEAE related to GP681, Hypertriglyceridemia: no. of TEAEs: 1[1]
  TEAE related to GP681, Hypertriglyceridemia: no. of subjects: 1[1]
  TEAE related to GP681, Hypophosphatemia: no. of TEAEs: 1[1]
  TEAE related to GP681, Hypophosphatemia: no. of subjects: 1[1]
  TEAE related to GP681, Investigations: no. of TEAEs: 7
  TEAE related to GP681, Investigations: no. of subjects: 3
  TEAE related to GP681, Lymphocyte count decreased: no. of TEAEs: 1[1]
  TEAE related to GP681, Lymphocyte count decreased: no. of subjects: 1[1]
  TEAE related to GP681, Metabolism and nutrition disorders: no. of TEAEs: 2[2]
  TEAE related to GP681, Metabolism and nutrition disorders: no. of subjects: 2[2]
  TEAE related to GP681, Occult blood in urine: no. of TEAEs: 1[1]
  TEAE related to GP681, Occult blood in urine: no. of subjects: 1[1]
  TEAE related to GP681, Overall total: no. of TEAEs: 9
  TEAE related to GP681, Overall total: no. of subjects: 4
  TEAE related to GP681, Red blood cell increased: no. of TEAEs: 1[1]
  TEAE related to GP681, Red blood cell increased: no. of subjects: 1[1]
  TEAE related to GP681, Total bile acid increased: no. of TEAEs: 1[1]
  TEAE related to GP681, Total bile acid increased: no. of subjects: 1[1]
[6]; N = 12, treatment stage given by label, listed as Suraxavir Marboxil (GP681)
  TEAE Overall total: no. of subjects (percent of subjects): 5
[6]; Total over the study, N = 12
  TEAE related to GP681, Overall total: no. of TEAEs: 11
  TEAE related to GP681, Overall total: no. of subjects: 5
[6]; whole study, 12 subjects
  serious adverse events: No serious adverse events

## CCC(C)n1ncn(-c2ccc(N3CCN(c4ccc(OCC5COC(Cn6cncn6)(c6ccc(Cl)cc6Cl)O5)cc4)CC3)cc2)c1=O (stereo not shown) [Itraconazole]
[6]; [7]
  TEAE Alanine aminotransferase increased: no. of TEAEs: 1
  TEAE Alanine aminotransferase increased: no. of subjects (percent of subjects): 1 (8.3)
  TEAE Basophil count increased: no. of subjects (percent of subjects): 0
  TEAE Gamma-glutamyltransferase increased: no. of subjects (percent of subjects): 0
  TEAE Hemoglobin decreased: no. of subjects (percent of subjects): 0
  TEAE Hepatobiliary disorders: no. of subjects (percent of subjects): 1 (8.3)
  TEAE Hyperbilirubinemia: no. of subjects (percent of subjects): 1 (8.3)
  TEAE Hypertriglyceridemia: no. of subjects (percent of subjects): 1 (8.3)
  TEAE Hyperuricemia: no. of subjects (percent of subjects): 0
  TEAE Hypophosphatemia: no. of subjects (percent of subjects): 0
  TEAE Investigations: no. of TEAEs: 2
  TEAE Investigations: no. of subjects (percent of subjects): 2 (16.7)
  TEAE Lymphocyte count decreased: no. of subjects (percent of subjects): 0
  TEAE Metabolism and nutrition disorders: no. of subjects (percent of subjects): 1 (8.3)
  TEAE Occult blood in urine: no. of TEAEs: 1
  TEAE Occult blood in urine: no. of subjects (percent of subjects): 1 (8.3)
  TEAE Overall total: no. of TEAEs: 4
  TEAE Overall total: no. of subjects (percent of subjects): 4 (33.3)
  TEAE Red blood cell increased: no. of subjects (percent of subjects): 0
  TEAE Total bile acid increased: no. of subjects (percent of subjects): 0
  TEAE White blood cell increased: no. of subjects (percent of subjects): 0
[6]; N = 12, treatment stage given by label, listed as itraconazole
  TEAE Overall total: no. of subjects (percent of subjects): 4
